Source: ChEMBL document CHEMBL1201862, “PubChem BioAssay data set” (2004)
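Protocol summary: plate cells (96-well), add compound at 5 concentrations, incubate 48 h, interpolate endpoints linearly. GI50: concentration for 50% inhibition of growth.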 Calls of active or inactive are those of the source. Rule as the data show it: active = GI50 up to about 1.1 µM and inactive = higher.

How the values were obtained:
Experiment in all cases: DTP human tumour cell line panel, 48 h
786-0 = test system: 786-0
A498 = test system: A498
A549 = test system: A549
ACHN = test system: ACHN
BT-549 = test system: BT-549
CAKI-1 = test system: CAKI-1
CCRF-CEM = test system: CCRF-CEM
COLO 205 = test system: COLO 205
EKVX = test system: EKVX
HCC 2998 = test system: HCC 2998
HCT-116 = test system: HCT-116
HCT-15 = test system: HCT-15
HL-60 = test system: HL-60
HOP-62 = test system: HOP-62
HT-29 = test system: HT-29
Hs-578T = test system: Hs-578T
IGROV-1 = test system: IGROV-1
K562 = test system: K562
KM12 = test system: KM12
LOX IMVI = test system: LOX IMVI
M14 = test system: M14
MCF7 = test system: MCF7
MDA-MB-231 = test system: MDA-MB-231
MDA-MB-435 = test system: MDA-MB-435
MDA-N = test system: MDA-N
MOLT-4 = test system: MOLT-4
NCI-H226 = test system: NCI-H226
NCI-H23 = test system: NCI-H23
NCI-H460 = test system: NCI-H460
NCI-H522 = test system: NCI-H522
NCI/ADR-RES = test system: NCI/ADR-RES
OVCAR-3 = test system: OVCAR-3
OVCAR-4 = test system: OVCAR-4
OVCAR-5 = test system: OVCAR-5
OVCAR-8 = test system: OVCAR-8
PC-3 = test system: PC-3
RPMI-8226 = test system: RPMI-8226
RXF 393 = test system: RXF 393
SF-268 = test system: SF-268
SF-295 = test system: SF-295
SF-539 = test system: SF-539
SK-MEL-28 = test system: SK-MEL-28
SK-MEL-2 = test system: SK-MEL-2
SK-OV-3 = test system: SK-OV-3
SN12C = test system: SN12C
SNB-19 = test system: SNB-19
SNB-75 = test system: SNB-75
SR = test system: SR
SW-620 = test system: SW-620
T47D = test system: T47D
TK-10 = test system: TK-10
U-251 = test system: U-251
UACC-257 = test system: UACC-257
UACC-62 = test system: UACC-62
UO-31 = test system: UO-31
DU-145 = test system: DU-145
HOP-92 = test system: HOP-92
Malme-3M = test system: Malme-3M
SK-MEL-5 = test system: SK-MEL-5

COc1ccc2[nH]c3c(C)c4ccnc(NCCCN(C)CCCNc5ccc6nnn7c8ccccc8c(=O)c5c67)c4c(C)c3c2c1
GI50 (786-0): 0.237 µM (active) | GI50 (A498): 1.35 µM (inactive) | GI50 (A549): 0.0395 µM (active) | GI50 (ACHN): 0.0773 µM (active) | GI50 (BT-549): 1.83 µM (inactive) | GI50 (CAKI-1): 1.03 µM (active) | GI50 (CCRF-CEM): 0.0047 µM (active) | GI50 (COLO 205): 0.367 µM (active) | GI50 (EKVX): 1.01 µM (active) | GI50 (HCC 2998): 0.209 µM (active) | GI50 (HCT-116): 0.0217 µM (active) | GI50 (HCT-15): 0.114 µM | GI50 (HL-60): 0.135 µM (active) | GI50 (HOP-62): 0.714 µM (active) | GI50 (HT-29): 0.0266 µM (active) | GI50 (Hs-578T): 1.38 µM (inactive) | GI50 (IGROV-1): 0.308 µM (active) | GI50 (K562): 0.226 µM (active) | GI50 (KM12): 0.432 µM (active) | GI50 (LOX IMVI): 0.228 µM (active) | GI50 (M14): 0.938 µM (active) | GI50 (MCF7): 0.0561 µM (active) | GI50 (MDA-MB-231): 0.181 µM (active) | GI50 (MDA-MB-435): 0.362 µM (active) | GI50 (MDA-N): 0.583 µM (active) | GI50 (MOLT-4): 0.00104 µM (active) | GI50 (NCI-H226): > 10 µM (inactive) | GI50 (NCI-H23): 0.745 µM (active) | GI50 (NCI-H460): 0.0399 µM (active) | GI50 (NCI-H522): 0.107 µM (active) | GI50 (NCI/ADR-RES): 0.982 µM (active) | GI50 (OVCAR-3): 1.17 µM (inactive) | GI50 (OVCAR-4): 1.02 µM (active) | GI50 (OVCAR-5): 1.24 µM (inactive) | GI50 (OVCAR-8): 0.297 µM (active) | GI50 (PC-3): 0.597 µM (active) | GI50 (RPMI-8226): 0.0474 µM (active) | GI50 (RXF 393): 1.03 µM (active) | GI50 (SF-268): 0.679 µM (active) | GI50 (SF-295): 0.14 µM (active) | GI50 (SF-539): 0.237 µM (active) | GI50 (SK-MEL-28): 1.75 µM (inactive) | GI50 (SK-MEL-2): > 10 µM (inactive) | GI50 (SK-OV-3): 2.64 µM (inactive) | GI50 (SN12C): 0.242 µM (active) | GI50 (SNB-19): 0.711 µM (active) | GI50 (SNB-75): 1.01 µM (active) | GI50 (SR): 0.335 µM (active) | GI50 (SW-620): 0.013 µM (active) | GI50 (T47D): 1.81 µM (inactive) | GI50 (TK-10): 1.07 µM (active) | GI50 (U-251): 0.223 µM (active) | GI50 (UACC-257): 1.43 µM (inactive) | GI50 (UACC-62): > 10 µM (inactive) | GI50 (UO-31): 0.603 µM (active)

CCn1c2c(c3ccccc3c1=O)C(=O)c1ccccc1-2
GI50 (786-0): > 100 µM (inactive) | GI50 (A498): > 100 µM (inactive) | GI50 (A549): > 100 µM (inactive) | GI50 (BT-549): > 100 µM (inactive) | GI50 (CAKI-1): > 100 µM (inactive) | GI50 (CCRF-CEM): 22 µM (inactive) | GI50 (COLO 205): > 100 µM (inactive) | GI50 (DU-145): > 100 µM (inactive) | GI50 (EKVX): > 100 µM (inactive) | GI50 (HCT-116): > 100 µM (inactive) | GI50 (HCT-15): > 100 µM | GI50 (HL-60): > 100 µM (inactive) | GI50 (HOP-62): > 100 µM (inactive) | GI50 (HOP-92): > 100 µM (inactive) | GI50 (HT-29): > 100 µM (inactive) | GI50 (Hs-578T): 74.5 µM (inactive) | GI50 (IGROV-1): > 100 µM (inactive) | GI50 (K562): > 100 µM (inactive) | GI50 (KM12): > 100 µM (inactive) | GI50 (LOX IMVI): > 100 µM (inactive) | GI50 (M14): > 100 µM (inactive) | GI50 (MCF7): > 100 µM (inactive) | GI50 (MDA-MB-231): 85.7 µM (inactive) | GI50 (MDA-MB-435): > 100 µM (inactive) | GI50 (MDA-N): > 100 µM (inactive) | GI50 (MOLT-4): 3.12 µM (inactive) | GI50 (Malme-3M): > 100 µM (inactive) | GI50 (NCI-H226): > 100 µM (inactive) | GI50 (NCI-H23): > 100 µM (inactive) | GI50 (NCI-H522): > 100 µM (inactive) | GI50 (NCI/ADR-RES): > 100 µM (inactive) | GI50 (OVCAR-3): > 100 µM (inactive) | GI50 (OVCAR-4): > 100 µM (inactive) | GI50 (OVCAR-5): > 100 µM (inactive) | GI50 (OVCAR-8): > 100 µM (inactive) | GI50 (PC-3): > 100 µM (inactive) | GI50 (RPMI-8226): > 100 µM (inactive) | GI50 (SF-268): > 100 µM (inactive) | GI50 (SF-295): > 100 µM (inactive) | GI50 (SF-539): 19.1 µM (inactive) | GI50 (SK-MEL-28): > 100 µM (inactive) | GI50 (SK-MEL-2): > 100 µM (inactive) | GI50 (SK-MEL-5): 50.1 µM (inactive) | GI50 (SK-OV-3): > 100 µM (inactive) | GI50 (SN12C): > 100 µM (inactive) | GI50 (SNB-19): > 100 µM (inactive) | GI50 (SNB-75): > 100 µM (inactive) | GI50 (SW-620): > 100 µM (inactive) | GI50 (T47D): > 100 µM (inactive) | GI50 (TK-10): > 100 µM (inactive) | GI50 (U-251): > 100 µM (inactive) | GI50 (UACC-257): > 100 µM (inactive) | GI50 (UACC-62): > 100 µM (inactive) | GI50 (UO-31): > 100 µM (inactive)
